Patent publication US5053006A, “Method for the permanent occlusion of arteries” (priority 1990, dated 1991)
Like-named read-outs stand apart in the source and are kept apart here.

Experiments:
corneal neovasculature = assay type: in vivo, New Zealand albino rabbit
From the text: The corneal and limbal epithelia, along with the conjunctival epithelium 2-3 mm beyond the limbus, were removed from New Zealand albino rabbits by a combination of surgical scraping and n-heptanol debridement. The denuded corneal surfaces were then healed by the remaining conjunctival epithelium, of which 65% contained extensive neovascularization. From this group, 16 corneas with neovascularization persistent for about 20 months were subjected to photothrombotic treatment.
Isotonic saline solution was used as a control solution.
After anesthesia with intramuscular injection of xylazine (10 mg/kg bw) and ketamine (10 mg/kg bw), the rabbits were injected intravenously with either 2.5 ml of isotonic saline solution or rose bengal saline solution at a dosage of 40 mg/kg bw. Irradiation of corneal vessels was carried out with an argon ion laser (Model 95, Cooper LaserSonics, Fremont, Calif.) operated at 514.5 nm, as described by Mendelsohn et al. (Arch. Opthalmol., 105:983-988, 1987). The beam focusing apparatus was mounted in an X-Y positioning device attached to a rotary turntable, both with micrometer precision (Daedal, Inc., Harrison City, Pa.). With this apparatus, beam positioning stability and reproducibility of incident intensity were improved because irradiations were administered during the open cycle of the mechanical shutter. The incident power level was set at 200 mW; allowing for reflection losses in the fiber optic focusing system, the incident power was reduced to 130 mW. At the focal point, the laser beam was 63 μm in diameter. Each irradiation was 0.2 second in pulse duration. During the entire procedure, the corneas were continuously rinsed with a balanced salt solution delivered through a peristatic pump and the temperature of the solution was maintained at 37° C. with a water bath. After laser irradiation, topical antibiotics and steroids were applied for two days.
Routine external photography and corneal fluorescein angiography were performed to document occlusion of the corneal blood vessels and the duration of their occlusion. Angiograms were taken with a ceiling-mounted Zeiss surgical photoscope after injection of 1 ml of 10 mg/ml fluorescein solution. Baseline angiography was performed two or three days before laser irradiation to avoid possible photosensitizing effects from the fluorescein dye used for angiography. After photothrombotic treatment, angiograms were taken on scheduled dates in order to monitor the duration of the occlusive effect. Late phase (5 minutes after injection) fluorescein angiograms were used for comparison.
Various dosages of rose bengal solution were used to investigate the efficacy of photothrombosis.

[1] = in vivo; cited from earlier work
femoral artery = assay: Argon laser photothrombotic occlusion of femoral artery (Example 1); assay type: in vivo, rat (male Wistar)
From the text: Male Wistar rats, each weighing 280 to 330 gm, were anesthetized with 1.5% halothane and maintained on a 70:30 mixture of nitrous oxide and oxygen delivered by a closely fitting Mylar face mask (Watson et al., J. Neurosurg., 66:748-754, 1987, the disclosure of which is hereby incorporated by reference and relied upon). After separation of the temporal musculature, the middle cerebral artery was exposed via a small subtemporal craniectomy produced by a high-speed drill under an operating microscope; the dura was left intact. The common carotid arteries were exposed bilaterally by a midline incision extending from the mental process to the sternal notch; the sternocleidomastoid muscle was then retracted laterally to expose the underlying artery. Bleeding from the operative site was controlled with pressure and Gelfoam. The animal was then prepared for irradiation by filling the surgical cavity with saline, just submerging the exposed blood vessel. The saline solution was kept clear by frequent suction and irrigation. The femoral arteries were exposed by bilateral inguinal incisions and were prepared for irradiation in a fashion similar to that described above.
As assessed by observation of rose bengal fluorescence, thrombus development in the common carotid or femoral arteries followed a course similar to that observed in the middle cerebral artery, except that the thrombus appeared as a […] as viewed through the blood vessel wall. Intense scattering of the incident laser light was also noted at about the time that arterial pulsations at the level of irradiation ceased.
Ultrastructural studies were carried out at either 30 minutes or 7 days following irradiation. Animals were perfused transcardially with 0.9% sodium chloride solution followed by 2% paraformaldehyde and 2.5% glutaraldehyde in a 0.1 M sodium phosphate buffer. Perfusion pressure was monitored throughout the procedure and was maintained at 100 mm Hg. After perfusion fixation, the femoral and common carotid arteries were isolated and placed in fixative for an additional 2 hours. To isolate the middle cerebral artery, the brain was first removed from the cranial vault and placed in fixative for a 2-hour period. Next, the whole brain was placed in phosphate-buffered 1% osmium tetroxide for 2 minutes.

[2] = rabbit, in vivo
Protocol: In order to investigate possible systemic side effects of rose bengal, the blood chemistry profiles of healthy rabbits before and after intravenous injection of rose bengal were studied. Four practical dosages, i.e., 40, 16, 8 and 4 mg/kg bw, were administered. Five rabbits were used for each dosage except for the dosage of 40 mg/kg bw, in which case ten rabbits were used. Three blood samples (3 ml each) were collected from each rabbit before injection with rose bengal, and one and five days following injection.

[3] = common carotid and femoral arteries

From the text for arteries: The method utilizes an intravascular photochemical reaction to induce structural damage to normally non-thrombogenic vascular endothelium. The photochemical process is mediated by rose bengal, a potent photosensitizing dye injected into the bloodstream. Absorption by the injected rose bengal dye of light at a wavelength sufficient to electronically excite the rose bengal molecules induces photochemical injury via singlet oxygen peroxidation reactions in the vascular endothelium at the point of interaction of the rose bengal and the light beam, which is preferably a laser light beam.
A tunable argon ion laser (a Lexel Model 95 argon ion laser, manufactured by Cooper LaserSonics, Santa Clara, Calif.), operated at 514.5 nm, was used for the irradiation. The argon ion laser was focused according to a derived criterion (described below) to facilitate maximally efficient intraluminal growth of the occlusive thrombus. The middle cerebral artery was irradiated with 7.5 mW delivered either continuously or via a beam-chopper operated at 200 Hz (with 75 mW peak power, 10% duty cycle). The carotid and femoral arteries were each irradiated with a chopped beam at 1 W average power (2 W peak power chopped at 200 Hz and 50% duty cycle). […] The middle cerebral artery (diameter approximately 200 μm) was irradiated through a spherical lens of 39-cm focal length at a distance of 40 cm from the artery; with correction for optical reflection losses, the incident intensity was 16 W/sq cm. The femoral artery (diameter 670 μm) and common carotid artery (diameter 800 μm) were irradiated through a spherical lens of 61-cm focal length at distances of 42 and 26 cm from the artery, respectively. In each case, the average incident intensity, with correction for irradiation geometry, was approximately 160 W/sq cm.
A stock solution of rose bengal dye, 30 mg/ml in 0.9% saline, was made up for intravenous injection (via the tail vein) at a dose of 40 mg/kg. Before dye injection, the contralateral (control) arteries were irradiated for 15 minutes at the stated intensities. Following this, simultaneous intravenous infusion of the rose bengal solution (at 20 mg/kg/min over 2 minutes) and irradiation of the ipsilateral artery was begun. Five rats were used for common carotid artery irradiation and four for femoral artery irradiation. In the latter case, two rats received only 20 mg/kg. Middle cerebral artery irradiation was performed in a large series of approximately 70 animals.

## O=C([O-])c1c(Cl)c(Cl)c(Cl)c(Cl)c1-c1c2cc(I)c(=O)c(I)c-2oc2c(I)c([O-])c(I)cc12.[Na+].[Na+] [rose bengal]
arteries; 35 kJ/sq cm large arteries, 3.5 kJ/sq cm small arteries
  time to occlusion: ≤ 3 min
arteries; [3]
  distal extension of mixture of red blood cells and coagulum: at least 10 arterial diameters
  thrombus composition: thrombus of mixed character
arteries; irradiated arteries of rats injected with rose bengal solution
  photochemically induced thrombotic occlusion: always observed
Corneal neovasculature; 4 mg/kg BW i.v., duration 0-10 min, means ± s.d.
  Total Laser Shots to Occlude each Vessel: 33 ± 8
Corneal neovasculature; 4 mg/kg BW i.v., duration 10-20 min, means ± s.d.
  Total Laser Shots to Occlude each Vessel: 53 ± 8
Corneal neovasculature; 4 mg/kg BW i.v., duration 20-30 min, means ± s.d.
  Total Laser Shots to Occlude each Vessel: 81 ± 11
Corneal neovasculature; 4 mg/kg BW i.v., duration 30-40 min
  Total Laser Shots to Occlude each Vessel: > 100
Corneal neovasculature; 4 mg/kg BW i.v., duration 40-50 min
  Total Laser Shots to Occlude each Vessel: N.O.
Corneal neovasculature; 4 mg/kg BW i.v., duration 50-60 min
  Total Laser Shots to Occlude each Vessel: N.O.
Corneal neovasculature; 4 mg/kg bw
  shots required to occlude blood vessels: more than 100 shots
Corneal neovasculature; 4 mg/kg bw, sufficient shots
  time window in which vessels could still be occluded: ≤ 30 min
Corneal neovasculature; 8 mg/kg BW i.v., duration 0-10 min, means ± s.d.
  Total Laser Shots to Occlude each Vessel: 13 ± 4
Corneal neovasculature; 8 mg/kg BW i.v., duration 10-20 min, means ± s.d.
  Total Laser Shots to Occlude each Vessel: 19 ± 1
Corneal neovasculature; 8 mg/kg BW i.v., duration 20-30 min, means ± s.d.
  Total Laser Shots to Occlude each Vessel: 30 ± 4
Corneal neovasculature; 8 mg/kg BW i.v., duration 30-40 min, means ± s.d.
  Total Laser Shots to Occlude each Vessel: 51 ± 7
Corneal neovasculature; 8 mg/kg BW i.v., duration 40-50 min, means ± s.d.
  Total Laser Shots to Occlude each Vessel: 65 ± 6
Corneal neovasculature; 8 mg/kg BW i.v., duration 50-60 min, means ± s.d.
  Total Laser Shots to Occlude each Vessel: 85 ± 10
Corneal neovasculature; 8 mg/kg bw or higher
  shots per target vessel required for occlusion: < 20 shots
Corneal neovasculature; 16 mg/kg BW i.v., duration 0-10 min, means ± s.d.
  Total Laser Shots to Occlude each Vessel: 8 ± 3
Corneal neovasculature; 16 mg/kg BW i.v., duration 10-20 min, means ± s.d.
  Total Laser Shots to Occlude each Vessel: 9 ± 2
Corneal neovasculature; 16 mg/kg BW i.v., duration 20-30 min, means ± s.d.
  Total Laser Shots to Occlude each Vessel: 10 ± 2
Corneal neovasculature; 16 mg/kg BW i.v., duration 30-40 min, means ± s.d.
  Total Laser Shots to Occlude each Vessel: 13 ± 3
Corneal neovasculature; 16 mg/kg BW i.v., duration 40-50 min, means ± s.d.
  Total Laser Shots to Occlude each Vessel: 20 ± 4
Corneal neovasculature; 16 mg/kg BW i.v., duration 50-60 min, means ± s.d.
  Total Laser Shots to Occlude each Vessel: 32 ± 5
Corneal neovasculature; 40 mg/kg BW i.v., duration 0-10 min, means ± s.d.
  Total Laser Shots to Occlude each Vessel: 5 ± 1
Corneal neovasculature; 40 mg/kg BW i.v., duration 10-20 min, means ± s.d.
  Total Laser Shots to Occlude each Vessel: 5 ± 1
Corneal neovasculature; 40 mg/kg BW i.v., duration 20-30 min, means ± s.d.
  Total Laser Shots to Occlude each Vessel: 6 ± 1
Corneal neovasculature; 40 mg/kg BW i.v., duration 30-40 min, means ± s.d.
  Total Laser Shots to Occlude each Vessel: 8 ± 2
Corneal neovasculature; 40 mg/kg BW i.v., duration 40-50 min, means ± s.d.
  Total Laser Shots to Occlude each Vessel: 10 ± 3
Corneal neovasculature; 40 mg/kg BW i.v., duration 50-60 min, means ± s.d.
  Total Laser Shots to Occlude each Vessel: 15 ± 4
Corneal neovasculature; after photothrombosis
  corneal fluorescein angiography: completely occluded without any dye leakage
Corneal neovasculature; four-month study period
  recanalization / new vessel formation: without recanalization or stimulation of new vessel formation elsewhere
Corneal neovasculature; one week after irradiation
  involution of occluded corneal vessels: gradually involuted
Corneal neovasculature; rabbit, in vivo, 40 mg/kg
  conjunctival side effect: edematous and slightly pinkish in color
[1]
  disappearance through the feces: 3 days
15 mg/ml
  pH of isotonic saline solution: 6.80
Normal saline
  highest concentration which could be achieved practically: 100 mg/mL
Femoral artery; 40 mg/kg i.v., 514.5 nm argon laser
  complete occlusion, irradiation time: ≤ 3 min
Femoral artery; 514.5 nm argon laser
  energy fluence at occlusion: about 35 kJ/sq cm
  total energy deposited at occlusion: 140 to 180 joules (J)
Femoral artery; one-half the standard dose (20 mg/kg), two rats
  occlusion, irradiation time: ≤ 4 min
[2]
  external examination, discoloration: slightly pinkish discoloration of the mucosal surfaces
  lethargy or change of appetite: Neither lethargy nor change of appetite was noted
[2]; 40 mg/kg
  blood chemistry overall: within the normal range except for a small number in the group that received the highest dosage
[2]; iv
  long-term systemic toxicity: does not result in long-term systemic toxicity
